According to patent US20260022142A1, “MACROCYCLIC IMMUNOMODULATORS” (Bristol-Myers Squibb Company, priority 2022, published 2026):
Bridge positions count the residues as written; N and C are the ends. Square brackets hold non-standard residues; d marks the D form. Peptide text beside a SMILES is read from it. * marks the point of attachment. Bip = N[C@@H](Cc1ccc(-c2ccccc2)cc1)C(=O)O; Phe(3-Me) = Cc1cccc(C[C@H](N)C(=O)O)c1; 3Pal = N[C@@H](Cc1cccnc1)C(=O)O; 4Pal = N[C@@H](Cc1ccncc1)C(=O)O; Cha = N[C@@H](CC1CCCCC1)C(=O)O; Carboxymethyl = O=C(O)C*; Orn = NCCC[C@H](N)C(=O)O; Aun = NCCCCCCCCCCC(=O)O; Dab = NCC[C@H](N)C(=O)O; Dap = NC[C@H](N)C(=O)O

Target: T1, PD-1/PD-L1 interaction (PE-labeled human PD-L1-Ig binding to Jurkat cell line over-expressing human PD-1) (Homo sapiens, UniProt Q15116)
T1 construct: expressed in transfected cells; host or cells: Jurkat
T1 sequence (Q15116 25-288): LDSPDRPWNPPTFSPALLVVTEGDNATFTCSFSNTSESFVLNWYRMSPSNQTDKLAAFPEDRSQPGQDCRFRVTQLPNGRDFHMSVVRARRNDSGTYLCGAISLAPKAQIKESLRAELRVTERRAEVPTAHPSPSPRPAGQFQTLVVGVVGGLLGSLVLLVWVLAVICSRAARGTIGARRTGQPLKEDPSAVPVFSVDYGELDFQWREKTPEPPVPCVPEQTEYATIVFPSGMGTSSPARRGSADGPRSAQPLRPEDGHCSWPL
Test: Jurkat-PD-1 Cell Binding High-Content Screening Assay (CBA)
Assay type: cell-based
Settings: Jurkat cell line over-expressing human PD-1; PE-labeled PD-L1-Ig 20 nM final; read-out: Jurkat hPD1-PDL1 IC50
In short: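 Human PD-L1-Ig carrying a covalent PE label on its Ig tag serves as the probe, applied at 20 nM final to compound-treated (2 h, 37° C) Jurkat-hPD-1 cells in medium with 10% fetal calf serum. After one hour, fixation and nuclear staining precede high-content image analysis.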

| SMILES | IC50 [nM] |
| --- | --- |
| Cc1cccc(C[C@@H]2NC(=O)[C@H](CC(=O)O)NC(=O)[C@H](Cc3ccncc3)NC(=O)[C@H](Cc3ccc(OCC(=O)O)cc3)NC(=O)CSC[C@@H](C(=O)N[C@@H](CCN)C(=O)NCCCCCCCCCCC(=O)O)NC(=O)[C@H]([C@@H](C)O)NC(=O)[C@H](C(C)C)NC(=O)[C@H](CC3CCCCC3)NC(=O)[C@H](CCN)NC(=O)[C@@H](CC(C)C)NC(=O)[C@H](CCCN)NC(=O)[C@H](Cc3ccc(O)cc3)NC(=O)[C@H](Cc3ccc(-c4ccccc4)cc3)NC(=O)[C@H](C(C)C)NC2=O)c1 [Compound 2733] ({CH2CO}-Y(Carboxymethyl)[4Pal]D[Phe(3-Me)]V[Bip]Y[Orn][dL][Dab][Cha]VTC[Dab][Aun]-OH; thioether N-14) | 42.2 |
| Cc1cccc(C[C@@H]2NC(=O)[C@H](CC(=O)O)NC(=O)[C@H](Cc3ccncc3)NC(=O)[C@H](Cc3ccc(OCC(=O)O)cc3)NC(=O)CSC[C@@H](C(=O)N[C@@H](CCN)C(=O)NCCCCCCCCCCC(=O)O)NC(=O)[C@H]([C@@H](C)O)NC(=O)[C@H](C(C)C)NC(=O)[C@H](CC3CCCCC3)NC(=O)[C@H](CCN)NC(=O)[C@@H](CC(C)C)NC(=O)[C@H](CCCN)NC(=O)[C@H](Cc3ccc(O)cc3)NC(=O)[C@H](Cc3ccc(-c4ccccc4)cc3)NC(=O)[C@H](Cc3ccc(O)cc3)NC2=O)c1 [Compound 2734] ({CH2CO}-Y(Carboxymethyl)[4Pal]D[Phe(3-Me)]Y[Bip]Y[Orn][dL][Dab][Cha]VTC[Dab][Aun]-OH; thioether N-14) | 27.2 |
| Cc1cccc(C[C@@H]2NC(=O)[C@H](CC(=O)O)NC(=O)[C@H](Cc3ccc(OCC(=O)O)cc3)NC(=O)[C@H](CN)NC(=O)CSC[C@@H](C(=O)N[C@H](CC(=O)NCCCCCCCCCCC(=O)O)C(N)=O)NC(=O)[C@H]([C@@H](C)O)NC(=O)[C@H](C(C)C)NC(=O)[C@H](CC3CCCCC3)NC(=O)[C@H](CCN)NC(=O)[C@@H](CC(C)C)NC(=O)[C@H](CCCN)NC(=O)[C@H](Cc3ccc(O)cc3)NC(=O)[C@H](Cc3ccc(-c4ccccc4)cc3)NC(=O)[C@H](C(C)C)NC2=O)c1 [Compound 2735] ({CH2CO}-[Dap]Y(Carboxymethyl)D[Phe(3-Me)]V[Bip]Y[Orn][dL][Dab][Cha]VTC[dD](Aun)-NH2; thioether N-14) | 72.4 |
| Cc1cccc(C[C@@H]2NC(=O)[C@H](CC(=O)O)NC(=O)[C@H](Cc3ccc(OCC(=O)O)cc3)NC(=O)[C@H](CN)NC(=O)CSC[C@@H](C(=O)N[C@H](CC(=O)NCCCCCCCCCCC(=O)O)C(N)=O)NC(=O)[C@H]([C@@H](C)O)NC(=O)[C@H](C(C)C)NC(=O)[C@H](CC3CCCCC3)NC(=O)[C@H](CCN)NC(=O)[C@@H](CC(C)C)NC(=O)[C@H](CCCN)NC(=O)[C@H](Cc3ccc(O)cc3)NC(=O)[C@H](Cc3ccc(-c4ccccc4)cc3)NC(=O)[C@H](Cc3ccc(O)cc3)NC2=O)c1 [Compound 2736] ({CH2CO}-[Dap]Y(Carboxymethyl)D[Phe(3-Me)]Y[Bip]Y[Orn][dL][Dab][Cha]VTC[dD](Aun)-NH2; thioether N-14) | 114 |
| Cc1cccc(C[C@@H]2NC(=O)[C@H](CC(=O)O)NC(=O)[C@H](Cc3ccc(OCC(=O)O)cc3)NC(=O)[C@H](CN)NC(=O)CSC[C@@H](C(=O)N[C@@H](CCN)C(=O)NCCCCCCCCCCC(=O)O)NC(=O)[C@H]([C@@H](C)O)NC(=O)[C@H](C(C)C)NC(=O)[C@H](CC3CCCCC3)NC(=O)[C@H](CCN)NC(=O)[C@@H](CC(C)C)NC(=O)[C@H](CCCN)NC(=O)[C@H](Cc3ccc(O)cc3)NC(=O)[C@H](Cc3ccc(-c4ccccc4)cc3)NC(=O)[C@H](CC(C)C)NC2=O)c1 [Compound 2737] ({CH2CO}-[Dap]Y(Carboxymethyl)D[Phe(3-Me)]L[Bip]Y[Orn][dL][Dab][Cha]VTC[Dab][Aun]-OH; thioether N-14) | 28.8 |
| Cc1cccc(C[C@@H]2NC(=O)[C@H](CC(=O)O)NC(=O)[C@H](Cc3ccc(O)cc3)NC(=O)[C@H](CC(N)=O)NC(=O)CSC[C@@H](C(=O)N[C@@H](CCN)C(=O)NCCCCCCCCCCC(=O)O)NC(=O)[C@H]([C@@H](C)O)NC(=O)[C@H](C(C)C)NC(=O)[C@H](CC3CCCCC3)NC(=O)[C@H](CCN)NC(=O)[C@@H](CC(C)C)NC(=O)[C@H](CCCN)NC(=O)[C@H](Cc3ccc(O)cc3)NC(=O)[C@H](Cc3ccc(-c4ccccc4)cc3)NC(=O)[C@H](C(C)C)NC2=O)c1 [Compound 2738] ({CH2CO}-NYD[Phe(3-Me)]V[Bip]Y[Orn][dL][Dab][Cha]VTC[Dab][Aun]-OH; thioether N-14) | 63.2 |
| Cc1cccc(C[C@@H]2NC(=O)[C@H](CC(=O)O)NC(=O)[C@H](Cc3ccc(OCC(=O)O)cc3)NC(=O)[C@H](CC(N)=O)NC(=O)CSC[C@@H](C(=O)N[C@@H](CCN)C(=O)NCCCCCCCCCCC(=O)O)NC(=O)[C@H]([C@@H](C)O)NC(=O)[C@H](C(C)C)NC(=O)[C@H](CC3CCCCC3)NC(=O)[C@H](CCN)NC(=O)[C@@H](CC(C)C)NC(=O)[C@H](CCCN)NC(=O)[C@H](Cc3ccc(O)cc3)NC(=O)[C@H](Cc3ccc(-c4ccccc4)cc3)NC(=O)[C@H](C(C)C)NC2=O)c1 [Compound 2739] ({CH2CO}-NY(Carboxymethyl)D[Phe(3-Me)]V[Bip]Y[Orn][dL][Dab][Cha]VTC[Dab][Aun]-OH; thioether N-14) | 18.9 |
| Cc1cccc(C[C@@H]2NC(=O)[C@H](CC(=O)O)NC(=O)[C@H](Cc3cccnc3)NC(=O)[C@H](CC(N)=O)NC(=O)CSC[C@@H](C(=O)N[C@@H](CCN)C(=O)NCCCCCCCCCCC(=O)O)NC(=O)[C@H]([C@@H](C)O)NC(=O)[C@H](C(C)C)NC(=O)[C@H](CC3CCCCC3)NC(=O)[C@H](CCN)NC(=O)[C@@H](CC(C)C)NC(=O)[C@H](CCCN)NC(=O)[C@H](Cc3ccc(O)cc3)NC(=O)[C@H](Cc3ccc(-c4ccccc4)cc3)NC(=O)[C@H](C(C)C)NC2=O)c1 [Compound 2740] ({CH2CO}-N[3Pal]D[Phe(3-Me)]V[Bip]Y[Orn][dL][Dab][Cha]VTC[Dab][Aun]-OH; thioether N-14) | 19.7 |
| CC(C)C[C@H]1NC(=O)[C@H](CCCN)NC(=O)[C@H](Cc2ccc(O)cc2)NC(=O)[C@H](Cc2ccc(-c3ccccc3)cc2)NC(=O)[C@H](C(C)C)NC(=O)[C@H](Cc2c[nH]c3ccccc23)NC(=O)[C@H](CC(=O)O)NC(=O)[C@H](Cc2ccc(OCC(=O)O)cc2)NC(=O)[C@H](Cc2ccncc2)NC(=O)CSC[C@@H](C(=O)N[C@@H](CCN)C(=O)NCCCCCCCCCCC(=O)O)NC(=O)[C@H]([C@@H](C)O)NC(=O)[C@H](C(C)C)NC(=O)[C@H](CC2CCCCC2)NC(=O)[C@H](CCN)NC1=O [Compound 2741] ({CH2CO}-[4Pal]Y(Carboxymethyl)DWV[Bip]Y[Orn][dL][Dab][Cha]VTC[Dab][Aun]-OH; thioether N-14) | 54.3 |
| CC(C)C[C@@H]1NC(=O)[C@H](CCN)NC(=O)[C@@H](CC(C)C)NC(=O)[C@H](CCCN)NC(=O)[C@H](Cc2ccc(O)cc2)NC(=O)[C@H](Cc2ccc(-c3ccccc3)cc2)NC(=O)[C@H](C(C)C)NC(=O)[C@H](Cc2c[nH]c3ccccc23)NC(=O)[C@H](CC(=O)O)NC(=O)[C@H](Cc2ccc(OCC(=O)O)cc2)NC(=O)[C@H](Cc2ccncc2)NC(=O)CSC[C@@H](C(=O)N[C@@H](CCN)C(=O)NCCCCCCCCCCC(=O)O)NC(=O)[C@H]([C@@H](C)O)NC(=O)[C@H](C(C)C)NC1=O [Compound 2742] ({CH2CO}-[4Pal]Y(Carboxymethyl)DWV[Bip]Y[Orn][dL][Dab]LVTC[Dab][Aun]-OH; thioether N-14) | 133 |
| CC(C)C[C@H]1NC(=O)[C@H](CCCN)NC(=O)[C@H](Cc2ccc(O)cc2)NC(=O)[C@H](Cc2ccc(-c3ccccc3)cc2)NC(=O)[C@H](C(C)C)NC(=O)[C@H](Cc2c[nH]c3ccccc23)NC(=O)[C@H](CC(=O)O)NC(=O)[C@H](Cc2ccc(O)cc2)NC(=O)[C@H](Cc2ccncc2)NC(=O)CSC[C@@H](C(=O)N[C@@H](CCN)C(=O)NCCCCCCCCCCC(=O)O)NC(=O)[C@H]([C@@H](C)O)NC(=O)[C@H](C(C)C)NC(=O)[C@H](CC2CCCCC2)NC(=O)[C@H](CCN)NC1=O [Compound 2743] ({CH2CO}-[4Pal]YDWV[Bip]Y[Orn][dL][Dab][Cha]VTC[Dab][Aun]-OH; thioether N-14) | 97.6 |
| Cc1cccc(C[C@@H]2NC(=O)[C@H](CC(=O)O)NC(=O)[C@H](Cc3ccc(OCC(=O)O)cc3)NC(=O)[C@H](Cc3ccncc3)NC(=O)CSC[C@@H](C(=O)N[C@@H](CCN)C(=O)NCCCCCCCCCCC(=O)O)NC(=O)[C@H]([C@@H](C)O)NC(=O)[C@H](C(C)C)NC(=O)[C@H](CC3CCCCC3)NC(=O)[C@H](CCN)NC(=O)[C@@H](CC(C)C)NC(=O)[C@H](CCCN)NC(=O)[C@H](Cc3ccc(O)cc3)NC(=O)[C@H](Cc3ccc(-c4ccccc4)cc3)NC(=O)[C@H](C(C)C)NC2=O)c1 [Compound 2744] ({CH2CO}-[4Pal]Y(Carboxymethyl)D[Phe(3-Me)]V[Bip]Y[Orn][dL][Dab][Cha]VTC[Dab][Aun]-OH; thioether N-14) | 72.5 |
| Cc1cccc(C[C@@H]2NC(=O)[C@H](CC(=O)O)NC(=O)[C@H](Cc3ccc(O)cc3)NC(=O)[C@H](Cc3ccncc3)NC(=O)CSC[C@@H](C(=O)N[C@@H](CCN)C(=O)NCCCCCCCCCCC(=O)O)NC(=O)[C@H]([C@@H](C)O)NC(=O)[C@H](C(C)C)NC(=O)[C@H](CC3CCCCC3)NC(=O)[C@H](CCN)NC(=O)[C@@H](CC(C)C)NC(=O)[C@H](CCCN)NC(=O)[C@H](Cc3ccc(O)cc3)NC(=O)[C@H](Cc3ccc(-c4ccccc4)cc3)NC(=O)[C@H](C(C)C)NC2=O)c1 [Compound 2745] ({CH2CO}-[4Pal]YD[Phe(3-Me)]V[Bip]Y[Orn][dL][Dab][Cha]VTC[Dab][Aun]-OH; thioether N-14) | 262 |
| CC(C)C[C@H]1NC(=O)[C@H](CCCN)NC(=O)[C@H](Cc2ccc(O)cc2)NC(=O)[C@H](Cc2ccc(-c3ccccc3)cc2)NC(=O)[C@H](C(C)C)NC(=O)[C@H](Cc2c[nH]c3ccccc23)NC(=O)[C@H](CC(=O)O)NC(=O)[C@H](Cc2ccncc2)NC(=O)[C@H](Cc2ccc(OCC(=O)O)cc2)NC(=O)CSC[C@@H](C(=O)N[C@@H](CCN)C(=O)NCCCCCCCCCCC(=O)O)NC(=O)[C@H]([C@@H](C)O)NC(=O)[C@H](C(C)C)NC(=O)[C@H](CC2CCCCC2)NC(=O)[C@H](CCN)NC1=O [Compound 2746] ({CH2CO}-Y(Carboxymethyl)[4Pal]DWV[Bip]Y[Orn][dL][Dab][Cha]VTC[Dab][Aun]-OH; thioether N-14) | 48.6 |
